According to patent US20230321253A1, “BIFUNCTIONAL COMPOUNDS AND PHARMACEUTICAL USES THEREOF” (RISEN (SUZHOU) PHARMA TECH CO., LTD., priority 2022, published 2023):

Molecular target: T1, KRAS-G12D protein (Homo sapiens, UniProt P01116, G12D)
T1 construct: host or cells: Aspc-1 cells
Assay: KRAS-G12D protein degradation study in Aspc-1 cells (western blot)
Type: cell-based
Conditions: for inhibition at 0.1 µM / inhibition at 1 µM: ASPC1, 24 h, 24 hours, read-out: Rate of protein degradation (KRAS^G12D); for inhibition at 0.1 µM: Aspc-1 cells treated with 0.1 μM compound; for inhibition at 1 µM: Aspc-1 cells treated with 1 μM compound
Procedure: Aspc-1 (Cobioer, CBP60546) cells in exponential growth phase were inoculated on a 6-well cell culture plate (Corning, 3516) at density of 1E6/well; and cells in the plate were cultured in 37° C. incubator containing 5% carbon dioxide. The next day, test compounds were dissolved in DMSO (Sigma, RNBF5902) for the preparation of a 10 mM concentration stock solution. The stock solution was diluted with complete medium (RPMI-1640 supplemented with 10% fetal bovine serum, 1% penicillin-streptomycin), yielding working solutions of various concentrations. The plate, after the addition of compounds, was placed in a 5% carbon dioxide incubator, and incubated at 37° C. for 24 hours (final DMSO concentration was 0.1%). The plate was then removed from the incubator, and the cells were washed twice with precooled PBS (Gibco, 14190250), followed by addition of 80 μL RIPA lysis buffer (containing protease inhibitor (Invitrogen™, AM2696)) to each well. The adherent cells were scraped off with a cell scraper, and the cell lysate was transferred to a 1.5 mL centrifuge tube followed with a 30-minute incubation on ice. The lysate was then clarified with centrifugation at 14000 rpm for 10 min at 4° C. The supernatant was transferred into a new 1.5 mL centrifuge tube, and protein concentration was measured with BCA protein detection kit (Thermo Fisher, 23225). KRAS-G12D protein level was assessed by western blot.
A mixture of cell lysate (40 μL) and loading buffer (10 μL 5×SDS (Beyotime, P0015L)) was denatured in a water bath at 95° C. for 10 min. The denatured protein sample, at 30 μL/well, was loaded into the corresponding well of a 4-20% Bis-Tris gel (Kingsley, M00656). Protein samples were initially electrophoresed at 80 V for 30 minutes, followed by 120 V for 40 minutes, until the bromophenol blue strip ran to an appropriate position. After electrophoresis, iBlot2 (Life Technologies, IB21001) was used to transfer the separated samples onto PVDF film. The PVDF membrane was washed with double-distilled water and then blocked in TBST (Thermo Scientific, 28360) buffer containing 5% non-fat milk, for 2 hours. Blocked membrane was rinsed with tris-buffered saline tween-20 (Thermo Scientific, 28360, TBST) three times, 10 minutes each. Membrane was then incubated with 1:1000 diluted KRAS primary antibody (CST, cat #14429S) overnight at 4° C. Membrane was rinsed as described previously followed by 1 hour incubation of secondary antibody at room temperature. After washing the film three times with TBST, ECL color developing solution was applied, and image was captured with Biorad Chemi Doc gel imager. The band gray value was quantified (Image Lab), and protein degradation level was calculated according to the following formula:
Level of RAS protein expression=(RAS-compound/GAPDH)/(RAS-DMSO/GAPDH)
Level of degradation (%)=(1−Rate of RAS protein expression)×100
The symbols “−”, “+”, “++”, and “+++” indicate that the degradation level of KRAS^G12D protein induced by the test compounds was 10% or less, 11 to 30%, 31 to 60%, and greater than 60%, respectively.
Half-maximum degradation concentrations (DC50s) of exemplary test compounds were calculated using GraphPad Prism and their values are shown in Table 6. The symbols “++++”, “+++”, “++” and “+” indicate DC50 equal or less than 10 nM, 11-50 nM, 51-100 nM, and 101-200 nM, respectively.

T1 sequence (P01116 1-188 isoform P01116-2 G12D): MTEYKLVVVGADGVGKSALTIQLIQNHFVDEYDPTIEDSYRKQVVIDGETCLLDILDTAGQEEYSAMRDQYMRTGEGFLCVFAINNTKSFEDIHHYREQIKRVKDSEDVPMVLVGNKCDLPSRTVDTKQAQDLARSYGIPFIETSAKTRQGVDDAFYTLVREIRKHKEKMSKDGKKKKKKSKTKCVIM

## C#Cc1c(F)ccc2cc(O)cc(-c3ncc4c(N5CC6CCC(C5)N6)nc(OC[C@@H]5C[C@@H](NC(=O)C6(C(=O)N7CCC(c8ccc9c(C%10CCC(=O)NC%10=O)nn(C)c9c8)CC7)CC6)CN5C)nc4c3F)c12 (stereo in doubt) [Compound 96]
  inhibition at 0.1 µM: 11 to 30%

## C#Cc1c(F)ccc2cc(O)cc(-c3ncc4c(N5CC6CCC(C5)N6)nc(OC5CCN(CCCCCCCCCC(=O)N6CCN(C(=O)C[C@H](NC(=O)[C@@H]7CC(O)CN7C(=O)[C@@H](NC(=O)C7(F)CC7)C(C)(C)C)c7ccc(-c8scnc8C)cc7)CC6)C5)nc4c3F)c12 (stereo in doubt) [Compound 105]
  inhibition at 0.1 µM: 31 to 60%

## C#Cc1c(F)ccc2cc(O)cc(-c3ncc4c(N5CC6CCC(C5)N6)nc(OCCCN5CCN(CCCCCC(=O)N[C@H](C(=O)N6C[C@H](O)C[C@H]6C(=O)NCc6ccc(-c7scnc7C)cc6)C(C)(C)C)CC5)nc4c3F)c12 [Compound 28]
  inhibition at 1 µM: 11 to 30%

## C#Cc1c(F)ccc2cc(O)cc(-c3ncc4c(N5CC6CCC(C5)N6)nc(OCCCN5CCN(CCCC(=O)N[C@H](C(=O)N6C[C@H](O)C[C@H]6C(=O)NCc6ccc(-c7scnc7C)cc6)C(C)(C)C)CC5)nc4c3F)c12 [Compound 30]
  inhibition at 1 µM: 11 to 30%

## C#Cc1c(F)ccc2cc(O)cc(-c3ncc4c(N5CC6CCC(C5)N6)nc(OC5CCN(CCOCCOCC(=O)N[C@H](C(=O)N6C[C@H](O)C[C@H]6C(=O)NCc6ccc(-c7scnc7C)cc6)C(C)(C)C)CC5)nc4c3F)c12 [Compound 53]
  inhibition at 1 µM: 11 to 30%

## C#Cc1c(F)ccc2cc(O)cc(-c3ncc4c(N5CC6CCC(C5)N6)nc(OC5CCN(CCOCCOCCOCC(=O)N[C@H](C(=O)N6C[C@H](O)C[C@H]6C(=O)NCc6ccc(-c7scnc7C)cc6)C(C)(C)C)CC5)nc4c3F)c12 [Compound 54]
  inhibition at 1 µM: ≤ 10%

## C#Cc1c(F)ccc2cc(O)cc(-c3ncc4c(N5CC6CCC(C5)N6)nc(OC5CCN(CCCCCCCCCCC(=O)N[C@H](C(=O)N6C[C@H](O)C[C@H]6C(=O)N[C@@H](C)c6ccc(-c7scnc7C)cc6)C(C)(C)C)C5)nc4c3F)c12 (stereo partly shown) [Compound 55]
  inhibition at 0.1 µM: > 60%
  inhibition at 1 µM: > 60%

## C#Cc1c(F)ccc2cc(O)cc(-c3ncc4c(N5CC6CCC(C5)N6)nc(OCC5CCN(CCCCCCCCCCC(=O)N[C@H](C(=O)N6C[C@H](O)C[C@H]6C(=O)N[C@@H](C)c6ccc(-c7scnc7C)cc6)C(C)(C)C)C5)nc4c3F)c12 (stereo partly shown) [Compound 56]
  inhibition at 0.1 µM: 31 to 60%
  inhibition at 1 µM: > 60%

## C#Cc1c(F)ccc2cc(O)cc(-c3ncc4c(N5CC6CCC(C5)N6)nc(OCC5CCN(CCCCCCCCCCC(=O)N6CCC(c7ccc8c(C9CCC(=O)NC9=O)nn(C)c8c7)CC6)C5)nc4c3F)c12 (stereo not shown) [Compound 57]
  inhibition at 0.1 µM: > 60%
  inhibition at 1 µM: > 60%

## CCc1c(F)ccc2cc(O)cc(-c3ncc4c(N5CC6CCC(C5)N6)nc(OCC56CCCN5[C@@H](COC(=O)NCCOCCOCCC(=O)N[C@H](C(=O)N5C[C@H](O)C[C@H]5C(=O)N[C@@H](C)c5ccc(-c7scnc7C)cc5)C(C)(C)C)CC6)nc4c3F)c12 (stereo partly shown) [Compound 58]
  inhibition at 0.1 µM: 11 to 30%
  inhibition at 1 µM: 31 to 60%

## C#Cc1c(F)ccc2cc(O)cc(-c3ncc4c(N5CC6CCC(C5)N6)nc(OCCCN5CCN(CC(=O)N6CCN(c7ccc8c(c7)C(=O)N(C7CCC(=O)NC7=O)C8=O)CC6)CC5)nc4c3F)c12 (stereo not shown) [Compound 59]
  inhibition at 0.1 µM: ≤ 10%
  inhibition at 1 µM: ≤ 10%

## C#Cc1c(F)ccc2cc(O)cc(-c3ncc4c(N5CC6CCC(C5)N6)nc(OCCCN5CCN(C(=O)CN6CCN(c7ccc8c(c7)C(=O)N(C7CCC(=O)NC7=O)C8=O)CC6)CC5)nc4c3F)c12 (stereo not shown) [Compound 60]
  inhibition at 0.1 µM: ≤ 10%
  inhibition at 1 µM: 11 to 30%

## C#Cc1c(F)ccc2cc(O)cc(-c3ncc4c(N5CC6CCC(C5)N6)nc(OCCCN5CCN(C(=O)CN6CCN(c7cccc8c7C(=O)N(C7CCC(=O)NC7=O)C8=O)CC6)CC5)nc4c3F)c12 (stereo not shown) [Compound 61]
  inhibition at 0.1 µM: ≤ 10%
  inhibition at 1 µM: ≤ 10%

## C#Cc1c(F)ccc2cc(O)cc(-c3ncc4c(N5CC6CCC(C5)N6)nc(OCCCN5CCN(CC(=O)N6CCN(c7cccc8c7C(=O)N(C7CCC(=O)NC7=O)C8=O)CC6)CC5)nc4c3F)c12 (stereo not shown) [Compound 62]
  inhibition at 0.1 µM: ≤ 10%
  inhibition at 1 µM: ≤ 10%

## C#Cc1c(F)ccc2cc(O)cc(-c3ncc4c(N5CC6CCC(C5)N6)nc(OCCCN5CCN(CC(=O)N6CCN(C(=O)C[C@H](NC(=O)[C@@H]7C[C@@H](O)CN7C(=O)[C@@H](NC(=O)C7(F)CC7)C(C)(C)C)c7ccc(-c8scnc8C)cc7)CC6)CC5)nc4c3F)c12 [Compound 63]
  inhibition at 0.1 µM: ≤ 10%
  inhibition at 1 µM: 11 to 30%

## C#Cc1c(F)ccc2cc(O)cc(-c3ncc4c(N5CC6CCC(C5)N6)nc(OCCCN5CCN(C(=O)C[C@H](NC(=O)[C@@H]6C[C@@H](O)CN6C(=O)[C@@H](NC(=O)C6(F)CC6)C(C)(C)C)c6ccc(-c7scnc7C)cc6)CC5)nc4c3F)c12 [Compound 64]
  inhibition at 0.1 µM: ≤ 10%
  inhibition at 1 µM: 11 to 30%

## CCc1c(F)ccc2cc(O)cc(-c3ncc4c(N5CC6CCC(C5)N6)nc(OCC56CCCN5[C@@H](COC(=O)NCCCCC(=O)N[C@H](C(=O)N5C[C@H](O)C[C@H]5C(=O)N[C@@H](C)c5ccc(-c7scnc7C)cc5)C(C)(C)C)CC6)nc4c3F)c12 (stereo partly shown) [Compound 67]
  inhibition at 0.1 µM: ≤ 10%
  inhibition at 1 µM: 31 to 60%

## CCc1c(F)ccc2cc(O)cc(-c3ncc4c(N5CC6CCC(C5)N6)nc(OCC56CCCN5[C@@H](COC(=O)NCCCCCCCC(=O)N[C@H](C(=O)N5C[C@H](O)C[C@H]5C(=O)N[C@@H](C)c5ccc(-c7scnc7C)cc5)C(C)(C)C)CC6)nc4c3F)c12 (stereo partly shown) [Compound 68]
  inhibition at 0.1 µM: 31 to 60%
  inhibition at 1 µM: > 60%

## C#Cc1c(F)ccc2cc(O)cc(-c3ncc4c(N5CC6CCC(C5)N6)nc(OC5CCN(CC(=O)N6CCN(C(=O)C[C@H](NC(=O)[C@@H]7C[C@@H](O)CN7C(=O)[C@@H](NC(=O)C7(F)CC7)C(C)(C)C)c7ccc(-c8scnc8C)cc7)CC6)CC5)nc4c3F)c12 [Compound 71]
  inhibition at 0.1 µM: ≤ 10%

## C#Cc1c(F)ccc2cc(O)cc(-c3ncc4c(N5CC6CCC(C5)N6)nc(OCCCN5CCC(C(=O)N6CCC(c7ccc8c(C9CCC(=O)NC9=O)nn(C)c8c7)CC6)CC5)nc4c3F)c12 (stereo not shown) [Compound 72]
  inhibition at 0.1 µM: > 60%
  inhibition at 1 µM: > 60%

## C#Cc1c(F)ccc2cc(O)cc(-c3ncc4c(N5CC6CCC(C5)N6)nc(OCCCN5CCN(CCC(=O)C6CCC(c7ccc8c(C9CCC(=O)NC9=O)nn(C)c8c7)CC6)CC5)nc4c3F)c12 (stereo not shown) [Compound 74]
  inhibition at 0.1 µM: 31 to 60%

## C#Cc1c(F)ccc2cc(O)cc(-c3ncc4c(N5CC6CCC(C5)N6)nc(OCCCN5CCC(C(=O)N6CCC(N7CCC(c8ccc9c(C%10CCC(=O)NC%10=O)nn(C)c9c8)CC7)CC6)CC5)nc4c3F)c12 (stereo not shown) [Compound 75]
  inhibition at 0.1 µM: > 60%
Aspc-1 cells, read-out: DC50 of test compound-induced KRAS^G12D protein degradation
  DC50: < 10 nM

## C#Cc1c(F)ccc2cc(O)cc(-c3ncc4c(N5CC6CCC(C5)N6)nc(OC5CCN(CCCCCCCCOc6cc(-c7ncsc7C)ccc6CNC(=O)[C@@H]6C[C@@H](O)CN6C(=O)[C@@H](NC(=O)C6(F)CC6)C(C)(C)C)CC5)nc4c3F)c12 [Compound 76]
  inhibition at 0.1 µM: ≤ 10%

## C#Cc1c(F)ccc2cc(O)cc(-c3ncc4c(N5CC6CCC(C5)N6)nc(OC5CCN(CCCCCCCCCCOc6cc(-c7ncsc7C)ccc6CNC(=O)[C@@H]6C[C@@H](O)CN6C(=O)[C@@H](NC(=O)C6(F)CC6)C(C)(C)C)CC5)nc4c3F)c12 [Compound 77]
  inhibition at 0.1 µM: ≤ 10%

## C#Cc1c(F)ccc2cc(O)cc(-c3ncc4c(N5CC6CCC(C5)N6)nc(OC5CCN(CCCCCCCCCCCCOc6cc(-c7ncsc7C)ccc6CNC(=O)[C@@H]6C[C@@H](O)CN6C(=O)[C@@H](NC(=O)C6(F)CC6)C(C)(C)C)CC5)nc4c3F)c12 [Compound 78]
  inhibition at 0.1 µM: ≤ 10%

## CCc1c(F)ccc2cc(O)cc(-c3ncc4c(N5CC6CCC(C5)N6)nc(OC5CCN(CCCCCCCCCCC(=O)N[C@H](C(=O)N6C[C@H](O)C[C@H]6C(=O)N[C@@H](C)c6ccc(-c7scnc7C)cc6)C(C)(C)C)CC5)nc4c3F)c12 [Compound 80]
  inhibition at 0.1 µM: 31 to 60%
